Paper PMC6511888, “Synthesis, Biological Evaluation, and Molecular Modeling Studies of New Thiadiazole Derivatives as Potent P2X7 Receptor Inhibitors” (Frontiers in Chemistry, 2019)
≈ marks a conversion by molar mass, not a printed value. Read-outs that look alike come from different tables or passages of the source.

Experiments:
P2X7R = target: T1, P2X7R (Mus musculus, UniProt Q9Z1M0); test: Dye uptake assay (propidium iodide) in mouse peritoneal macrophages; assay type: cell-based; conditions: mean ± SD; for inhibition at 10 µM: percentage relative to the maximum uptake of propidium stimulated by 1 mM ATP only; for IC50: propidium uptake assay, mice peritoneal macrophages
T1 construct: plated for 24 h before dye uptake assays, whole-cell patch clamp experiments, and IL-1β release assays; endogenous in cells; host or cells: mouse (Swiss Webster) peritoneal macrophages
T1 sequence (Q9Z1M0 1-595): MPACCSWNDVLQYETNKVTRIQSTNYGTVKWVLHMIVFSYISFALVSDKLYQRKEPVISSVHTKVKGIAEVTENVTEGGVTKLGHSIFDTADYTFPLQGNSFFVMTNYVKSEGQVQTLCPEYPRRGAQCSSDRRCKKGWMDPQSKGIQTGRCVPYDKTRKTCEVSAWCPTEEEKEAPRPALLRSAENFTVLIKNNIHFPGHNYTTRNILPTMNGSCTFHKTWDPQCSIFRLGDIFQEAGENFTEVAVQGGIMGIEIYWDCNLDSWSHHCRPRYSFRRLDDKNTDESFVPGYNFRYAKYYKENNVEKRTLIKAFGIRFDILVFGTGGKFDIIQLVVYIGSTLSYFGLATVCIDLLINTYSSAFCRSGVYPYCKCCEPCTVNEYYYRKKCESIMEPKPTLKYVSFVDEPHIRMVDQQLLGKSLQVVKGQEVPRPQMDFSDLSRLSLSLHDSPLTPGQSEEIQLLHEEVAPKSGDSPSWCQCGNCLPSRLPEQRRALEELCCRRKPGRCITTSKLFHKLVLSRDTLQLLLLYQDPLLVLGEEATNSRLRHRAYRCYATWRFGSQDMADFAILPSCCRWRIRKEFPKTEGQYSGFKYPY
Description: Our protocols adhered to the Ethical Principles in Animal Experimentation adopted by the Brazilian College of Animal Experimentation and approved by the FIOCRUZ Research Ethics Committee (Faria et al., [2005]; number L039- 2016). Male mouse (Swiss Webster) peritoneal macrophages were collected from peritoneal cavity lavage and plated for 24 h before dye uptake assays, whole-cell patch clamp experiments, and IL-1β release assays.
HEK-293 cells transfected with hP2X7R and mouse peritoneal macrophages were plated at 2.5 × 10^6 or 5 × 10^5 cells/ml, respectively, in 96-well culture plates containing DMEM with 10% FBS and anti-biotics (50 U/ml penicillin and […] streptomycin) in a humidified 5% CO2 atmosphere at 37°C for 24 h (Faria et al., [2018]).
[…] In the last 5 min of ATP incubation, propidium iodide for macrophages (PI; 750 nM) or ethidium bromide (EB; 25 μM) for HEK-293 cells was added to all wells. PI dye was excited at a wavelength of 530 nm, and its fluorescence emission was read at a wavelength of 590 nm using an M5 plate reader (Molecular Devices). EB dye was excited at a wavelength of 530 nm and emitted at a wavelength of 620 nm.

[1] = LDH release assay (toxicity); assay type: cell-based, mouse; conditions: mouse peritoneal macrophages; for IC50 at 24 h: read-out: Macrophages IC50 (toxic effect); for CC50 at 24 h: mouse, peritoneal macrophages, toxicity measured for 24 h
Description: (§1) Mouse peritoneal macrophages (5 × 10^5 cells) and HEK-293 cells transfected with P2X7R (5 × 10^5 cells) were plated in a 96-well-plate for 24 h before the treatment. […] The supernatant collected in this assay was used to measure the presence of LDH in the media using a cytotoxicity detection kit (Sigma kit for LDH) according to the manufacturer's instructions (Faria et al., [2018]).

[2] = tested on: mouse peritoneal macrophages; test: LDH release assay (toxicity); assay type: cell-based; conditions: 10 μM; relative to maximum LDH release caused by 0.05% Triton X-100; cell type not given; mean ± SD
Description: as §1

[3] = tested on: P2X7R-mediated IL-1β release; test: ATP-induced IL-1β release (ELISA) in differentiated THP-1 cells; assay type: cell-based, human
[4] = pH-dependent kinetic solubility; assay type: physicochemical; conditions: kinetic from dmso stock
Description: DMSO stock solutions (5 μl) were added into a 995-μl acetonitrile/buffer (1:1) mixture to prepare the calibration standard solutions. The reaction samples were centrifuged (10,000 rpm, 10 min, 25°C) and diluted 1:1 with acetonitrile (Faria et al., [2018]).

[5] = Stability in mouse liver microsomes; assay type: in vitro ADME; conditions: male, pH 7.4, read-out: LM stability mouse (CLint)
Description: (§2) Thiadiazole 9f stability was evaluated in liver microsomes from male mice and humans according to Faria et al. in 2018 (Faria et al., [2018]). Both solutions contained a final protein concentration of 0.5 mg/ml (0.1 M phosphate buffer) at pH 7.4. Microsomes were preincubated with 9f (1 μM) and DMSO ([…]) at 37°C before NADPH (1 mM) addition. A control for the reaction was a buffer containing 0.1 M phosphate at pH 7.4 in a final volume of 50 μl. Diazepam and verapamil were used as positive controls for mice and humans, respectively. Both types of microsomes were treated with 9f for 0, 5, 15, 30, and 45 min and the negative control [minus Nicotinamide adenine dinucleotide phosphate (NADPH)] for 45 min. To stop the reactions, methanol (50 μl) was added at the appropriate time points, and the samples were centrifuged (1,640 × g) for 20 min at 4°C to […] protein precipitation.
(§3) In vitro intrinsic clearance (CLint mic) for the metabolism of 9f in mouse and human liver microsomes was calculated using the equations below:
(§4) Half-life (t1/2) (minutes) = 0.693/k (1)
(§5) V(μL/mg) = volume of the incubation solution (μl)/protein in the incubation solution (mg) (2)
(§6) Intrinsic clearance (CLint) (μl/minutes/mg protein) = V × 0.693/t1/2 (3) according to the manufacturer's instructions.

[6] = Stability in human liver microsomes; assay type: in vitro ADME; conditions: pH 7.4, read-out: LM stability human (CLint)
Description: as §2, §3, §4, §5, §6

[7] = Distribution coefficient (Log D) in octanol/PBS pH 7.4; assay type: physicochemical; conditions: average of three experiments, read-out: Log D7.4
Description: Octanol and Phosphate-buffered saline (PBS) solution at a ratio of 1:1 (v/v) at pH 7.4 was shaken mechanically for 24 h to reach presaturation. Crescent octanol volumes (100–400 μl) were added to PBS (396 μl) and thiadiazole 9f (25 mM) in a volume of 4 μl. This solution was shaken for 2 h and centrifuged (3,000 rpm) for 5 min, and the PBS layer was collected 1 h later. To measure the PBS layer absorbance, a 100-μl aliquot (396 μl of PBS containing 4 μl of 9f + 400 μl of acetonitrile) was partitioned with acetonitrile (100 μl; Faria et al., [2018]).

[8] = ATP-induced IL-1β release, LPS/IFN-differentiated human THP-1 cells, read-out: THP-1 cells IC50
[9] = buffer, aqueous buffer, acidic pH values
[10] = phosphate buffer, pH 7.4, aqueous buffer

| SMILES | inhibition at 10 µM (P2X7R) [%] | IC50 (P2X7R) [µM] | IC50 [3, 8] [µM] | IC50 ([3]; Homo sapiens, THP-1 cells, read-out: IC50, IL-1β release) [µM] | solubility at 2 h [4, 9] [µM] | solubility at 2 h ([4]; buffer, pH 10, aqueous buffer) [µM] | solubility at 2 h [4, 10] [µM] | microsomal CLint at 1 μM [5] [µL/min/mg] | microsomal CLint at 1 μM [6] [µL/min/mg] | logD [7] | melting point [°C] | IC50 at 24 h [1] [µM] | CC50 at 24 h [1] [µM] | % LDH release [2] [%] | Potency relative to A740003 ([3]; IL-1β release, THP-1 cells) [times] | Potency relative to BBG (times more potent) ([3]; IL-1β release, THP-1 cells) |
| --- | --- | --- | --- | --- | --- | --- | --- | --- | --- | --- | --- | --- | --- | --- | --- | --- |
| Cc1cc(C)n(-c2nnc(-c3ccc(F)cc3)s2)n1 [Compound 11c, 2-(3,5-dimethyl-1H-pyrazol-1-yl)-5-(4-fluorophenyl)-1,3,4-thiadiazole] | 29.2 ± 0.3 | 0.122 ± 0.013 | 0.24 ± 0.017 | – | 300 (≈ 82.3 µg/mL) | > 500 | > 500 | 38.5 | 46.7 | -4.2 ± 0.4 | 174 | 3240 ± 201 | 3240 | 24 ± 1.7 | – | approximately 10 times |
| COc1ccc(CC(=O)NC(NC(=NC#N)Nc2cccc3ncccc23)C(C)(C)C)cc1OC (stereo not shown) [Compound A740003, N-(1-{[(cyanoimino)(5-quinolinylamino)methyl]amino}-2,2-dimethylpropyl)-2-(3,4-dimethoxyphenyl)acetamide] | – | 0.108 ± 0.016 | 0.223 ± 0.018 | – | – | – | – | – | – | – | – | 325 ± 6 | – | – | – | – |

Second part, led by results:

| inhibition at 10 µM (P2X7R) [%] | IC50 (P2X7R) [µM] | IC50 [3, 8] [µM] | IC50 ([3]; Homo sapiens, THP-1 cells, read-out: IC50, IL-1β release) [µM] | solubility at 2 h [4, 9] [µM] | solubility at 2 h ([4]; buffer, pH 10, aqueous buffer) [µM] | solubility at 2 h [4, 10] [µM] | microsomal CLint at 1 μM [5] [µL/min/mg] | microsomal CLint at 1 μM [6] [µL/min/mg] | logD [7] | melting point [°C] | SMILES | IC50 at 24 h [1] [µM] | CC50 at 24 h [1] [µM] | % LDH release [2] [%] | Potency relative to A740003 ([3]; IL-1β release, THP-1 cells) [times] | Potency relative to BBG (times more potent) ([3]; IL-1β release, THP-1 cells) |
| --- | --- | --- | --- | --- | --- | --- | --- | --- | --- | --- | --- | --- | --- | --- | --- | --- |
| 15.7 ± 0.6 | 0.016 ± 0.002 | 0.019 ± 0.003 | 0.02 to 0.3 | 300 (≈ 105 µg/mL) | > 500 | > 500 | 26.7 | 39.5 | -3.7 ± 0.2 | 190 to 191 | CCOC(=O)c1cnn(-c2nnc(-c3ccccc3Cl)s2)c1N [Compound 9f] | 6080 ± 102 | 3900 | 42.5 ± 0.4 | > 10 | more than 20 times |
| 28.2 ± 0.7 | 0.109 ± 0.011 | 0.279 ± 0.035 | – | 300 (≈ 85.9 µg/mL) | > 500 | > 500 | 11.6 | 18.6 | -0.9 ± 0.1 | 262 to 263 | N#Cc1cnn(-c2nnc(-c3ccc(F)cc3)s2)c1N [Compound 9c] | 3900 ± 77 | 6080 | 10 ± 0.7 | – | approximately 10 times |
| 30 ± 0.6 | 0.111 ± 0.009 | 0.298 ± 0.008 | – | 300 (≈ 90.8 µg/mL) | > 500 | > 500 | 14.3 | 26.4 | -1.2 ± 0.1 | 250 to 251 | N#Cc1cnn(-c2nnc(-c3ccccc3Cl)s2)c1N [Compound 9b] | 2270 ± 86 | 2270 | 15.8 ± 1.3 | – | approximately 10 times |
